Results from US20250002446A1, “Acetoacetate Based Ketals” (ARXADA AG, priority 2021, published 2025).

Assay: Acetal cleavage in simulated gastric fluid (SGF)
Type: physicochemical
Settings: 35-37° C., EtOAc extract analyzed by thin layer chromatography
Method: Acetal cleavage in simulated gastric fluid (SGF): propane-1,2,3-triyl tris(2-(2,4-dimethyl-1,3-dioxan-2-yl)acetate) (1 g, 2 mmol, 1 eq) was mixed with simulated gastric fluid (SGF) (5 g, 5 rel. eq.) at 35-37° C. After 30 min, 1 h and 2 h the mixture was sampled and extracted with EtOAc.

For `CC1CCOC(C)(CC(=O)OCC(COC(=O)CC2(C)OCCC(C)O2)OC(=O)CC2(C)OCCC(C)O2)O1` (centres unmarked) [propane-1,2,3-triyl tris(2-(2,4-dimethyl-1,3-dioxan-2-yl)acetate)], the “hydrolysis to 1,3-butanediol and propane-1,2,3-triyl tris(3-oxobutanoate)” value (after 30 min) was “a majority of the product had hydrolyzed” and the “hydrolysis to 1,3-butanediol and propane-1,2,3-triyl tris(3-oxobutanoate)” value (after 1 h) was “hydrolyzation was complete”.
